Laboratory results: patent publication US9617226B2 (AbbVie Deutschland GmbH & Co. KG, priority 2014, dated 2017)
pKi: −log10 of the molar value.

Legend:
[1] = target: human vasopressin V1a receptor (Homo sapiens (Human), UniProt P37288); assay: Vasopressin V1a receptor binding assay; conditions: selectivity quotient, human V1a vs human V1b
Description: The test substances were dissolved in a concentration of 5 mM M in DMSO. Further dilution of these DMSO solutions took place as described for V1b.
The membrane pellet was again homogenized in a High-Pressure-Homogenizer, Polytec 50K at 1500 PSI (Heinemann, Germany) and subsequently taken up in 50 mM Tris-HCl, pH 7.4, homogenized and stored in aliquots frozen in liquid nitrogen at −190° C.
The incubation buffer was: 50 mM Tris, 10 mM MgCl2, 0.1% BSA, pH 7.4.
Duplicate determinations were carried out.
After incubation (60 minutes at room temperature), the samples were processed as described for V1b.
The binding parameters were calculated by nonlinear regression in SAS.

[2] = target: human vasopressin V1b receptor (Homo sapiens (Human), UniProt P47901); assay: biochemical
Chain of human vasopressin V1b receptor (P47901 whole entry): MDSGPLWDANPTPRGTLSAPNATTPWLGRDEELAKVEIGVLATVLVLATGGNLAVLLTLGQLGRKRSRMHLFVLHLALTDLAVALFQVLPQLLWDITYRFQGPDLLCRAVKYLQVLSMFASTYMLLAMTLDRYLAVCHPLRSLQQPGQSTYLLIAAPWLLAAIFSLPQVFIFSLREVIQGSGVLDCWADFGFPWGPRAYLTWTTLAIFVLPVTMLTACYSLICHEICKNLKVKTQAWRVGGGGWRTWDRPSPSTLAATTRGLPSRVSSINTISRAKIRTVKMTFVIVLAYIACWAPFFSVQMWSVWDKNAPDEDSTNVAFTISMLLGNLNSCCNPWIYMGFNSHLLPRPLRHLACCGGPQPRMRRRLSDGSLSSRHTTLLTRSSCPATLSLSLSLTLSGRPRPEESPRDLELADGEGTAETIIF

Chain of human vasopressin V1a receptor (P37288 whole entry): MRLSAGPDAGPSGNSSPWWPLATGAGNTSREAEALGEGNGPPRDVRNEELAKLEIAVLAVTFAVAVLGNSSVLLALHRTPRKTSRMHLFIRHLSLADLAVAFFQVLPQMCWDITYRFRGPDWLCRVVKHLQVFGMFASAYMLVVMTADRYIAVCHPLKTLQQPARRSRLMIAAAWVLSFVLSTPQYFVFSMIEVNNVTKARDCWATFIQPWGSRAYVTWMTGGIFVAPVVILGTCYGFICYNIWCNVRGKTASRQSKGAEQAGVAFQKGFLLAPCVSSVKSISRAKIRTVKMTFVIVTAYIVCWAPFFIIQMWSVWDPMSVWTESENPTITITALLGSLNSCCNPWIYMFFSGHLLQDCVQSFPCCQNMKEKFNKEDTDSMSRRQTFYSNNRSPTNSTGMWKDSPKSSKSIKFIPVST

Row | Structure (SMILES) | Ki(h-V1a)/Ki(h-V1b) [1] | pKi [2]
1 | CC(C)NC(=O)Cn1c(-c2cccc(Cl)c2)nc2ccc([C@H]3C[C@@H](CN4CC=CCC4)C3)cc2c1=O [Example 18, cis-2-[2-(3-Chlorophenyl)-6-[3-(3,6-dihydro-2H-pyridin-1-ylmethyl)cyclobutyl]-4-oxo-quinazolin-3-yl]-N-isopropyl-acetamide] | +++ (>75) | 8.00 to 9.00
2 | CC(C)NC(=O)Cn1c(-c2cccc(Cl)c2)nc2ccc([C@H]3C[C@@H](CN4CC(F)C4)C3)cc2c1=O [Example 19, cis-2-[2-(3-Chlorophenyl)-6-[3-[(3-fluoroazetidin-1-yl)methyl]cyclobutyl]-4-oxo-quinazolin-3-yl]-N-isopropyl-acetamide] | +++ (>75) | 8.00 to 9.00
3 | CCOC1CCN(C[C@H]2C[C@@H](c3ccc4nc(-c5cccc(Cl)c5)n(CC(=O)NC(C)C)c(=O)c4c3)C2)CC1 [Example 20, cis-2-[2-(3-Chlorophenyl)-6-[3-[(4-ethoxy-1-piperidyl)methyl]cyclobutyl]-4-oxo-quinazolin-3-yl]-N-isopropyl-acetamide] | +++ (>75) | 7.00 to 8.00
4 | CC(C)NC(=O)Cn1c(-c2cccc(Cl)c2)nc2ccc([C@H]3C[C@@H](CN4CCCCCC4)C3)cc2c1=O [Example 21, cis-2-[6-[3-(Azepan-1-ylmethyl)cyclobutyl]-2-(3-chlorophenyl)-4-oxo-quinazolin-3-yl]-N-isopropyl-acetamide] | +++ (>75) | 8.00 to 9.00
5 | CC1CCN(C[C@H]2C[C@@H](c3ccc4nc(-c5cccc(Cl)c5)n(CC(=O)NC(C)C)c(=O)c4c3)C2)CC1 [Example 22, cis-2-[2-(3-Chlorophenyl)-6-[3-[(4-methyl-1-piperidyl)methyl]cyclobutyl]-4-oxo-quinazolin-3-yl]-N-isopropyl-acetamide] | +++ (>75) | 8.00 to 9.00
6 | CC(C)NC(=O)Cn1c(-c2cccc(Cl)c2)nc2ccc([C@H]3C[C@@H](CN4CC[C@H](C)C4)C3)cc2c1=O [Example 24, cis-2-[2-(3-Chlorophenyl)-6-[3-[[(3S)-3-methylpyrrolidin-1-yl]methyl]cyclobutyl]-4-oxo-quinazolin-3-yl]-N-isopropyl-acetamide] | +++ (>75) | 7.00 to 8.00
7 | CC(C)NC(=O)Cn1c(-c2cccc(Cl)c2)nc2ccc([C@H]3C[C@@H](CN4CCCOCC4)C3)cc2c1=O [Example 25, cis-2-[2-(3-Chlorophenyl)-6-[3-(1,4-oxazepan-4-ylmethyl)cyclobutyl]-4-oxo-quinazolin-3-yl]-N-isopropyl-acetamide] | +++ (>75) | 8.00 to 9.00
8 | CC(C)(C)NC(=O)Cn1c(-c2cccc(Cl)c2)nc2ccc([C@H]3C[C@@H](CN4CCCCC4)C3)cc2c1=O [Example 26, cis-N-tert-Butyl-2-[2-(3-chlorophenyl)-4-oxo-6-[3-(1-piperidylmethyl)cyclobutyl]-quinazolin-3-yl]acetamide] | +++ (>75) | > 9.00
9 | O=C(Cn1c(-c2cccc(Cl)c2)nc2ccc([C@H]3C[C@@H](CN4CCCCC4)C3)cc2c1=O)NC1CC1 [Example 27, cis-2-[2-(3-Chlorophenyl)-4-oxo-6-[3-(1-piperidylmethyl)cyclobutyl]quinazolin-3-yl]-N-cyclopropyl-acetamide] | +++ (>75) | 7.00 to 8.00
10 | CCCNC(=O)Cn1c(-c2cccc(Cl)c2)nc2ccc([C@H]3C[C@@H](CN4CCCCC4)C3)cc2c1=O [Example 28, cis-2-[2-(3-Chlorophenyl)-4-oxo-6-[3-(1-piperidylmethyl)cyclobutyl]quinazolin-3-yl]-N-propyl-acetamide] | +++ (>75) | 7.00 to 8.00
11 | O=C(Cn1c(-c2cccc(Cl)c2)nc2ccc([C@H]3C[C@@H](CN4CCCCC4)C3)cc2c1=O)NCC1CC1 [Example 29, cis-2-[2-(3-Chlorophenyl)-4-oxo-6-[3-(1-piperidylmethyl)cyclobutyl]quinazolin-3-yl]-N-(cyclopropylmethyl)acetamide] | +++ (>75) | 7.00 to 8.00
12 | CC(C)NC(=O)Cn1c(-c2cccc(Cl)c2)nc2ccc([C@H]3C[C@@H](CN4CCC(F)CC4)C3)cc2c1=O [Example 30, cis-2-[2-(3-Chlorophenyl)-6-[3-[(4-fluoro-1-piperidyl)methyl]cyclobutyl]-4-oxo-quinazolin-3-yl]-N-isopropyl-acetamide] | +++ (>75) | 8.00 to 9.00
13 | CC(C)NC(=O)Cn1c(-c2cccc(Cl)c2)nc2ccc([C@H]3C[C@@H](CN4CC5(COC5)C4)C3)cc2c1=O [Example 31, cis-2-[2-(3-Chlorophenyl)-6-[3-(6-oxa-2-azaspiro[3.3]heptan-2-ylmethyl)cyclobutyl]-4-oxo-quinazolin-3-yl]-N-isopropyl-acetamide] | +++ (>75) | 8.00 to 9.00
14 | CC(C)NC(=O)Cn1c(-c2cccc(Cl)c2)nc2ccc([C@H]3C[C@@H](CN4CCC(O)CC4)C3)cc2c1=O [Example 32, cis-2-[2-(3-Chlorophenyl)-6-[3-[(4-hydroxy-1-piperidyl)methyl]cyclobutyl]-4-oxo-quinazolin-3-yl]-N-isopropyl-acetamide] | +++ (>75) | 7.00 to 8.00
15 | CC(C)NC(=O)Cn1c(-c2cccc(Cl)c2)nc2ccc([C@H]3C[C@@H](CN4CCC[C@@H](O)C4)C3)cc2c1=O [Example 33, cis-2-[2-(3-Chlorophenyl)-6-[3-[[(3R)-3-hydroxy-1-piperidyl]methyl]cyclobutyl]-4-oxo-quinazolin-3-yl]-N-isopropyl-acetamide] | +++ (>75) | 8.00 to 9.00
16 | CC(C)NC(=O)Cn1c(-c2cccc(Cl)c2)nc2ccc([C@H]3C[C@@H](CN4CC[C@@H](C)C4)C3)cc2c1=O [Example 34, cis-2-[2-(3-Chlorophenyl)-6-[3-[[(3R)-3-methylpyrrolidin-1-yl]methyl]cyclobutyl]-4-oxo-quinazolin-3-yl]-N-isopropyl-acetamide] | +++ (>75) | 8.00 to 9.00
17 | COC1CN(C[C@H]2C[C@@H](c3ccc4nc(-c5cccc(Cl)c5)n(CC(=O)NC(C)C)c(=O)c4c3)C2)C1 [Example 35, cis-2-[2-(3-Chlorophenyl)-6-[3-[(3-methoxyazetidin-1-yl)methyl]cyclobutyl]-4-oxo-quinazolin-3-yl]-N-isopropyl-acetamide] | +++ (>75) | 7.00 to 8.00
18 | CC(C)NC(=O)Cn1c(-c2cccc(Cl)c2)nc2ccc([C@H]3C[C@@H](CN4CCC(C)(O)CC4)C3)cc2c1=O [Example 36, cis-2-[2-(3-Chlorophenyl)-6-[3-[(4-hydroxy-4-methyl-1-piperidyl)methyl]cyclobutyl]-4-oxo-quinazolin-3-yl]-N-isopropyl-acetamide] | +++ (>75) | 8.00 to 9.00
19 | CC(C)NC(=O)Cn1c(-c2cccc(Cl)c2)nc2ccc([C@H]3C[C@@H](CN4CCC[C@H](O)C4)C3)cc2c1=O [Example 37, cis-2-[2-(3-Chlorophenyl)-6-[3-[ [(3S)-3-hydroxy-1-piperidyl]methyl]cyclobutyl]-4-oxo-quinazolin-3-yl]-N-isopropyl-acetamide] | +++ (>75) | 8.00 to 9.00
20 | CC(C)NC(=O)Cn1c(-c2cccc(Cl)c2)nc2ccc([C@H]3C[C@@H](CN4CCC(C(F)(F)F)CC4)C3)cc2c1=O [Example 38, cis-2-[2-(3-Chlorophenyl)-4-oxo-6-[3-[[4-(trifluoromethyl)-1-piperidyl]methyl]cyclobutyl]quinazolin-3-yl]-N-isopropyl-acetamide] | +++ (>75) | 8.00 to 9.00
21 | CC(C)NC(=O)Cn1c(-c2cccc(Cl)c2)nc2ccc([C@H]3C[C@@H](CN4CC5(CCOCC5)C4)C3)cc2c1=O [Example 41, cis-2-[2-(3-Chlorophenyl)-6-[3-(7-oxa-2-azaspiro[3.5]nonan-2-ylmethyl)cyclobutyl]-4-oxo-quinazolin-3-yl]-N-isopropyl-acetamide] | +++ (>75) | 8.00 to 9.00
22 | CC(C)NC(=O)Cn1c(-c2cccc(Cl)c2)nc2ccc([C@H]3C[C@@H](CN4C[C@@H](C)O[C@@H](C)C4)C3)cc2c1=O [Example 42, cis-2-[2-(3-Chlorophenyl)-6-[3-[[(2S,6R)-2,6-dimethylmorpholin-4-yl]methyl]cyclobutyl]-4-oxo-quinazolin-3-yl]-N-isopropyl-acetamide] | +++ (>75) | 8.00 to 9.00
23 | CC(C)NC(=O)Cn1c(-c2cccc(Cl)c2)nc2ccc([C@H]3C[C@@H](CN4CCOC[C@H]4C)C3)cc2c1=O [Example 44, cis-2-[2-(3-Chlorophenyl)-6-[3-[[(3R)-3-methylmorpholin-4-yl]methyl]cyclobutyl]-4-oxo-quinazolin-3-yl]-N-isopropyl-acetamide] | +++ (>75) | 8.00 to 9.00
24 | C[C@H](NC(=O)Cn1c(-c2cccc(Cl)c2)nc2ccc([C@H]3C[C@@H](CN4CCCCC4)C3)cc2c1=O)C(F)(F)F [Example 45] | +++ (>75) | 8.00 to 9.00
25 | C[C@@H](NC(=O)Cn1c(-c2cccc(Cl)c2)nc2ccc([C@H]3C[C@@H](CN4CCCCC4)C3)cc2c1=O)C(F)(F)F [Example 46] | ++ (25-75) | 7.00 to 8.00
